Reference: patent US20140322076A1, “ANTIMICROBIAL COMPOSITION” (priority 2011, published 2014)

Tests used:
[1] = system: Escherichia coli (E. coli - ATCC #10536); experiment: Automated assessment of efficacy in surfactant base (Example 4); assay type: cell-based; conditions: 15 seconds exposure; for DeltaOD (450 nm) Mean: OD450 (16 hours) − OD450 (time zero), 2.85% sodium cocoyl glycinate + 1.85% sodium lauroamphoacetate; for DeltaOD (450 nm) Mean / DeltaOD (590 nm) Mean: pH 10; for DeltaOD (590 nm) Mean: OD590 (16 hours) − OD590 (time zero), same surfactant solution; for Nrep = No. of replicates showing growth (out of 4): surfactant solution pH 10
Protocol: In these examples, the efficacy of combinations of isopropylmethylphenols and terpineol were tested in a surfactant cleansing formulation comprising 2.85% sodium cocoyl glycinate and 1.85% sodium lauroamphoacetate. This corresponds to a 50% in use dilution with water of a typical neat formulation containing 5.7% cocoyl glycinate and 3.7% % sodium lauroamphoacetate during hand washing. Solutions were prepared such that the concentrations of the surfactant components and test actives were 1.1 times the final desired concentration in order to allow for dilution with the bacterial inoculum in the test. The solutions were manually adjusted to pH 10.0 by dropwise addition of sodium hydroxide solution, as measured with a pH meter at ambient temperature. Solutions of the isopropylmethylphenols and/or terpineols were prepared at a maximum of 24 hours before testing. The same terpineol was used as in Example 1.
The efficacy of the combinations of the present invention was determined against the same bacterium as in Example 1, Escherichia coli (E. coli—ATCC #10536), at a concentration of approximately 1×10^8 bacteria per mL.
Tests were conducted using standard microtiter plate assays using an automated liquid handling system. 270 μl of the surfactant test solution was pipetted into each well of the microtitre plate (Nunc F Gamma Irradiated 96F untreated microtitre plates of clear polystyrene) and 30 μl of the bacterial suspension was then added. After exactly 15 seconds of bacterial exposure, a 30 μl volume of bacterial cells was withdrawn and transferred to 270 μl of D/E quench solution. After 5 minutes in the D/E quench, the optical density (OD) was measured for each plate in turn at two specific wavelengths (450 nm and 590 nm). These provide a dual check of antimicrobial activity, as the OD450 reading is specific for the yellow colour of D/E quench when bacterial growth is observed, whereas OD590 is specific for the initial purple colour of the D/E quench which is retained if no bacterial growth is observed. After the time zero OD measurements, plates were then incubated at 37° C. overnight (16 hours) before repeating the OD measurements. Delta OD values were calculated by subtracting […] at time=16 hours.
Bacterial growth is observed as an increase in OD450 and a decrease in OD590. To identify antibacterially efficacious systems (those preventing appreciable bacterial growth after incubation), the following threshold changes in OD readings have been adopted: if (1). OD450 increases by less than 0.2 absorbance unit (AU) on incubation and (2). OD590 decreases by less than 0.35 AU on incubation. Conversely, where OD450 increases by more than 0.1 AU and OD590 decreases by more than 0.1 AU after incubation, corresponding to a colour shift from purple to yellow, the test system allows bacterial growth and is not deemed efficacious. Four replicate measurements in the same plate have been made for each test system. The number of replicate wells showing either bacterial growth or no growth is also readily assessed by eye by following the colour change. Thymol and terpineol were tested both alone and in combination for comparison purposes.
In each case, binary mixtures were assessed in the weight to weight ratio isopropylmethylphenol to alpha terpineol of 1:2.5.

[2] = system: Escherichia coli (10536 strain); experiment: Antimicrobial efficacy, 15 seconds contact suspension assay (Examples 1 and 3); assay type: cell-based; conditions: contact time 15 seconds; for NMBS: Example 3, gamma-terpineol, concentrations (% w/v) as given per example; for NMBS (mean bacterial survival): phenol and terpineol concentration (% w/v) as given per example, 0 = complete kill, triplicate
Protocol: The efficacies of antimicrobial agents can be usefully compared by determining the Minimum Biocidal Concentration (MBC). The MBC is defined as the lowest absolute concentration of the particular active that provides complete kill (zero bacterial growth).
ΣFBC=FBC(component 1)+FBC(component 2)+FBC(component 3)+ . . . etc
such that • ΣFBC≧1 corresponds to additive or antagonistic bactericidal activity • ΣFBC<1 corresponds to synergistic bactericidal activity
Antimicrobial efficacy is tested against a representative pathogenic bacterial organism, Gram negative Escherichia coli. Concentrations of actives are expressed in terms of the percentage weight/volume (% w/v) throughout Example 1.
An overnight culture of Escherichia coli (10536 strain) was prepared in 50 ml total volume of TSB broth, grown for ca. 18 hrs at 37° C. and shaken at 150 rpm. 1 ml of this overnight E. coli culture was transferred to 50 ml of fresh TSB broth and incubated at 37° C. at 150 rpm for ca. 4 hours. This culture was separated into equal volumes and centrifuged at 4000 rpm for 15 minutes, washed with sterile saline (0.85% NaCl), centrifuged once more and re-suspended in saline to give a final concentration of 0.8 OD620 equivalent to about 10^8 cells per millilitre for this particular organism. Here, OD620 indicates the absorbance of a sample in a cuvette of 1.0 cm path length at a wavelength of 620 nm. This bacterial stock was used for assaying against antimicrobial actives (in triplicate).
The following assay describes the testing of 8 materials using 6 dilutions across half of a 96-well micro titre plate (MTP). Using this approach it is possible to assay 16 actives (without replicates) with one full dilution plate, replicating this set up in two halves of the plate columns, 1-6 and 7-12.
1M solutions of the test actives were prepared in dimethylsulphoxide (DMSO).
Aliquots (270 μl) of the materials at 1.11 times the final concentration were dispensed into the wells of the MTP along one column (A1-H1). This MTP was labelled as the “Screening plate”.
In another MTP, labelled as the “Dilution plate”, 270 μl of D/E neutralising solution from DIFCO Composition was added to column 1. The composition of the neutralising solution was as follows: pancreatic digest of casein, 5.0 g/L; Yeast Extract, 2.5 g/L; Dextrose, 10 g/L, sodium thioglycollate, 1.0 g/L, sodium thiosulphate, 6.0 g/L; sodium bisulphite, 2.5 g/L; Polysorbate 80, 5.0 g/L; lecithin 7.0 g/L; bromocresol purple, 0.02 g/L with a pH in the range 7.6±0.2.
270 μl of tryptone diluent solution was added to all the remaining wells of the Dilution MTP (columns 2-6).
Bacterial stock (30 μl) was then added to the prepared 270 μl of the solution of actives in the Screening Plate and mixed, using a multichannel pipette with 8 tips to aspirate and dispense the same volume of bacterial stock in parallel to 8 wells in rows A-H. After a contact time of 15 seconds, the mixtures were quenched by transferring 30 μl volumes of the mixtures into the 270 μl D/E neutralising solution in the prepared dilution plate, using aspiration to mix. After exactly 5 minutes in the D/E neutralising solution, 30 μl volumes were transferred from column 1 to column 2 of the Dilution MTP and mixed, before transferring further 30 μl volumes from column 2 into column 3. This process was repeated serially diluting the bacteria across the plate to column 6.
30 μl volumes from each well in the Dilution MTP were transferred onto pre-labelled segment of Tryptone Soya Agar (TSA) plates starting from the lowest bacterial concentration (highest dilution, column 6) to the highest bacterial concentration (column 1). The TSA plates were allowed to stand for ca. 2 hours so that the 30 μl inocula spots could dry and the plates were then inverted and incubated overnight at 37° C. before enumerating the bacterial colonies at the labelled dilutions to determine the effects of the actives on bacterial growth.

## Cc1cc(O)ccc1C(C)C [4:27, 4-isopropyl-3-methylphenol]
[1]
  DeltaOD (450 nm) Mean: −0.48
  DeltaOD (590 nm) Mean: 0.58
  Nrep = No. of replicates showing growth (out of 4): 4

## Cc1cc(O)ccc1C(C)C [3:6, 4-isopropyl-3-methylphenol]
[2]
  NMBS: 7.78 log CFU/ml

## Cc1cc(O)cc(C(C)C)c1 [4:20, 3-isopropyl-5-methylphenol]
[1]
  DeltaOD (450 nm) Mean: −0.56
  DeltaOD (590 nm) Mean: 0.57
  Nrep = No. of replicates showing growth (out of 4): 4

## Cc1cc(O)ccc1C(C)C [4:26, 4-isopropyl-3-methylphenol]
[1]
  DeltaOD (450 nm) Mean: −0.46
  DeltaOD (590 nm) Mean: 0.67
  Nrep = No. of replicates showing growth (out of 4): 4

## CC1=CCC(O)(C(C)C)CC1 (centres unmarked) [4:16, terpineol]
[1]
  DeltaOD (450 nm) Mean: −0.57
  DeltaOD (590 nm) Mean: 0.55
  Nrep = No. of replicates showing growth (out of 4): 4

## Cc1ccc(C(C)C)c(O)c1 [4:4, thymol]
[1]
  DeltaOD (450 nm) Mean: −0.57
  DeltaOD (590 nm) Mean: 0.55
  Nrep = No. of replicates showing growth (out of 4): 4

## CC1=CCC(O)(C(C)C)CC1 (centres unmarked) [4:13, terpineol]
[1]
  DeltaOD (450 nm) Mean: −0.51
  DeltaOD (590 nm) Mean: 0.57
  Nrep = No. of replicates showing growth (out of 4): 4

## CC1=CCC(O)(C(C)C)CC1 (centres unmarked) [1:6, terpineol]
[2]
  NMBS (mean bacterial survival): 7 log CFU/ml

## CC1=CCC(O)(C(C)C)CC1 (centres unmarked) [4:10, terpineol]
[1]
  DeltaOD (450 nm) Mean: −0.45
  DeltaOD (590 nm) Mean: 0.64
  Nrep = No. of replicates showing growth (out of 4): 4

## CC1=CCC(O)(C(C)C)CC1 (centres unmarked) [1:5, terpineol]
[2]
  NMBS (mean bacterial survival): 0 log CFU/ml

## Cc1ccc(C(C)C)c(O)c1 [4:7, thymol]
[1]
  DeltaOD (450 nm) Mean: −0.59
  DeltaOD (590 nm) Mean: 0.54
  Nrep = No. of replicates showing growth (out of 4): 4

## Cc1cc(O)ccc1C(C)C [3:7, 4-isopropyl-3-methylphenol]
[2]
  NMBS: 7.79 log CFU/ml

## CC1=CCC(O)(C(C)C)CC1 (centres unmarked) [4:17, terpineol]
[1]
  DeltaOD (450 nm) Mean: −0.53
  DeltaOD (590 nm) Mean: 0.67
  Nrep = No. of replicates showing growth (out of 4): 4

## Cc1ccc(C(C)C)c(O)c1 [4:3, thymol]
[1]
  DeltaOD (450 nm) Mean: −0.54
  DeltaOD (590 nm) Mean: 0.56
  Nrep = No. of replicates showing growth (out of 4): 4

## CC1=CCC(O)(C(C)C)CC1 (centres unmarked) [4:12, terpineol]
[1]
  DeltaOD (450 nm) Mean: −0.48
  DeltaOD (590 nm) Mean: 0.58
  Nrep = No. of replicates showing growth (out of 4): 4

## Cc1ccc(C(C)C)c(O)c1 [1:1, thymol]
[2]
  NMBS (mean bacterial survival): 0 log CFU/ml

## CC1=CCC(O)(C(C)C)CC1 (centres unmarked) [4:11, terpineol]
[1]
  DeltaOD (450 nm) Mean: −0.47
  DeltaOD (590 nm) Mean: 0.59
  Nrep = No. of replicates showing growth (out of 4): 4

## Cc1ccc(C(C)C)c(O)c1 [4:9, thymol]
[1]
  DeltaOD (450 nm) Mean: −0.55
  DeltaOD (590 nm) Mean: 0.65
  Nrep = No. of replicates showing growth (out of 4): 4

## CC(C)=C1CCC(C)(O)CC1 (centres unmarked) [3:2, gamma-terpineol]
[2]
  NMBS: 0 log CFU/ml

## CC(C)=C1CCC(C)(O)CC1 (centres unmarked) [3:3, gamma-terpineol]
[2]
  NMBS: 0 log CFU/ml

## CC1=CCC(O)(C(C)C)CC1 (centres unmarked) [1:4, terpineol]
[2]
  NMBS (mean bacterial survival): 0 log CFU/ml

## Cc1ccc(C(C)C)c(O)c1 [4:5, thymol]
[1]
  DeltaOD (450 nm) Mean: −0.58
  DeltaOD (590 nm) Mean: 0.55
  Nrep = No. of replicates showing growth (out of 4): 4

## Cc1cc(O)cc(C(C)C)c1 [1:9, 3-isopropyl-5-methylphenol]
[2]
  NMBS (mean bacterial survival): 7.6 log CFU/ml

## Cc1ccc(C(C)C)c(O)c1 [4:6, thymol]
[1]
  DeltaOD (450 nm) Mean: −0.58
  DeltaOD (590 nm) Mean: 0.54
  Nrep = No. of replicates showing growth (out of 4): 4

## Cc1cc(O)cc(C(C)C)c1 [4:21, 3-isopropyl-5-methylphenol]
[1]
  DeltaOD (450 nm) Mean: −0.57
  DeltaOD (590 nm) Mean: 0.56
  Nrep = No. of replicates showing growth (out of 4): 4

## Cc1ccc(C(C)C)c(O)c1 [1:2, thymol]
[2]
  NMBS (mean bacterial survival): 0 log CFU/ml

## Cc1cc(O)ccc1C(C)C [1:12, 4-isopropyl-3-methylphenol]
[2]
  NMBS (mean bacterial survival): 0 log CFU/ml

## Cc1cc(O)cc(C(C)C)c1 [1:8, 3-isopropyl-5-methylphenol]
[2]
  NMBS (mean bacterial survival): 0 log CFU/ml

## Cc1ccc(C(C)C)c(O)c1 [4:8, thymol]
[1]
  DeltaOD (450 nm) Mean: −0.58
  DeltaOD (590 nm) Mean: 0.55
  Nrep = No. of replicates showing growth (out of 4): 4

## Cc1cc(O)ccc1C(C)C [3:5, 4-isopropyl-3-methylphenol]
[2]
  NMBS: 4.98 log CFU/ml

## Cc1ccc(C(C)C)c(O)c1 [1:3, thymol]
[2]
  NMBS (mean bacterial survival): >7 log CFU/ml

## Cc1cc(O)cc(C(C)C)c1 [4:18, 3-isopropyl-5-methylphenol]
[1]
  DeltaOD (450 nm) Mean: −0.54
  DeltaOD (590 nm) Mean: 0.63
  Nrep = No. of replicates showing growth (out of 4): 4

## CC1=CCC(O)(C(C)C)CC1 (centres unmarked) [4:14, terpineol]
[1]
  DeltaOD (450 nm) Mean: −0.54
  DeltaOD (590 nm) Mean: 0.56
  Nrep = No. of replicates showing growth (out of 4): 4

## CC1=CCC(O)(C(C)C)CC1 (centres unmarked) [4:15, terpineol]
[1]
  DeltaOD (450 nm) Mean: −0.56
  DeltaOD (590 nm) Mean: 0.55
  Nrep = No. of replicates showing growth (out of 4): 4

## Cc1ccc(C(C)C)c(O)c1 [4:2, thymol]
[1]
  DeltaOD (450 nm) Mean: −0.54
  DeltaOD (590 nm) Mean: 0.64
  Nrep = No. of replicates showing growth (out of 4): 4

## Cc1cc(O)cc(C(C)C)c1 [4:19, 3-isopropyl-5-methylphenol]
[1]
  DeltaOD (450 nm) Mean: −0.53
  DeltaOD (590 nm) Mean: 0.58
  Nrep = No. of replicates showing growth (out of 4): 4
